From publication PMC4889029 (Chemistry & biology, 2015)
Like-named read-outs stand apart in the source and are kept apart here.

What was measured:
Assay in all cases: in vitro DNA strand exchange assay with recombinant hRAD51
Assay type in all cases: biochemical
hRAD51 [1] = biological target: T1, hRAD51 (Homo sapiens, UniProt Q06609)
T1 sequence (Q06609 2-339): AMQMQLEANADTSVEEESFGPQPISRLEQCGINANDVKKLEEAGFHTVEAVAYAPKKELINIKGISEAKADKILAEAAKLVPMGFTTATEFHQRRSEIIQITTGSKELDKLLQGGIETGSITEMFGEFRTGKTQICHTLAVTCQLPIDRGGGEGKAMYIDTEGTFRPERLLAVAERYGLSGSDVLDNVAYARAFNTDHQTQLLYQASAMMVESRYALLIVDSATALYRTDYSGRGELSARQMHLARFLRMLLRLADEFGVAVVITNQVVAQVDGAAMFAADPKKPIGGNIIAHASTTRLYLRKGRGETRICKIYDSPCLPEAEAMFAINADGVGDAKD

hRAD51 [2] = biological target: T1, hRAD51; remark: listed apart in the source
hRAD51 [3] = biological target: T1, hRAD51; remark: listed apart in the source

IC50 (hRAD51 [3])	Compound	also measured
–	COc1cc(/C=C/c2ccc(O)cc2)cc(OC)c1 [P-ter, E-pterostilbene]	EC50 (hRAD51 [1]): 19.2 ± 2.4 µM
–	O=C(Nc1ccc(Br)cc1)c1ccc(Br)c(S(=O)(=O)NCc2ccccc2)c1 [RS-1]	EC50 (hRAD51 [2]): 25 ± 3 µM
90 ± 2.5 µM	O=S(=O)(O)c1cc(N=C=S)ccc1/C=C/c1ccc(N=C=S)cc1S(=O)(=O)O [DIDS]	–
50 ± 5 µM	O=C1C(Cl)=C(N2CCOCC2)C(=O)N1c1ccc(Cl)c(Cl)c1 [RI-1]	–
